Publication PMC11287240 (RSC Advances, 2024)
Where two headings read alike, the source gives them in different places.

What was measured:
[1] = target: EeAChE (Electrophorus electricus acetylcholinesterase) (Electrophorus electricus, UniProt O42275); test: AChE inhibition assay; assay type: biochemical, electric eel
hBACE 1 = hBACE 1 (Homo sapiens, UniProt P56817); test: BACE 1 FRET inhibition assay; assay type: biochemical; details: human BACE 1
[2] = hBACE 1 IC50 (μM) ± SD, mean ± SD, n = 3, FRET assay

Sequence of hBACE 1 (P56817 46-501): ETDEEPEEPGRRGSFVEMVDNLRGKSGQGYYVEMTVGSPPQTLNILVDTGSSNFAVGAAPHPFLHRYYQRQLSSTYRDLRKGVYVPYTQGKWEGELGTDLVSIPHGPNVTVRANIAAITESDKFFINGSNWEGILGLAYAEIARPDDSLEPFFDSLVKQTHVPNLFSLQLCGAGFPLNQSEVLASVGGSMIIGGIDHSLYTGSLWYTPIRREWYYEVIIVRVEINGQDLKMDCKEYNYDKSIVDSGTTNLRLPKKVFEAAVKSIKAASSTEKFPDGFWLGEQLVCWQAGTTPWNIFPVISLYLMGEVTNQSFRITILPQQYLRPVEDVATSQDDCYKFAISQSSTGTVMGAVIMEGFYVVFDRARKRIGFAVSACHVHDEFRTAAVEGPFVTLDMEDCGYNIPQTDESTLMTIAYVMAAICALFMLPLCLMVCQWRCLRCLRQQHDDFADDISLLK
Sequence of EeAChE (Electrophorus electricus acetylcholinesterase) (O42275 24-633): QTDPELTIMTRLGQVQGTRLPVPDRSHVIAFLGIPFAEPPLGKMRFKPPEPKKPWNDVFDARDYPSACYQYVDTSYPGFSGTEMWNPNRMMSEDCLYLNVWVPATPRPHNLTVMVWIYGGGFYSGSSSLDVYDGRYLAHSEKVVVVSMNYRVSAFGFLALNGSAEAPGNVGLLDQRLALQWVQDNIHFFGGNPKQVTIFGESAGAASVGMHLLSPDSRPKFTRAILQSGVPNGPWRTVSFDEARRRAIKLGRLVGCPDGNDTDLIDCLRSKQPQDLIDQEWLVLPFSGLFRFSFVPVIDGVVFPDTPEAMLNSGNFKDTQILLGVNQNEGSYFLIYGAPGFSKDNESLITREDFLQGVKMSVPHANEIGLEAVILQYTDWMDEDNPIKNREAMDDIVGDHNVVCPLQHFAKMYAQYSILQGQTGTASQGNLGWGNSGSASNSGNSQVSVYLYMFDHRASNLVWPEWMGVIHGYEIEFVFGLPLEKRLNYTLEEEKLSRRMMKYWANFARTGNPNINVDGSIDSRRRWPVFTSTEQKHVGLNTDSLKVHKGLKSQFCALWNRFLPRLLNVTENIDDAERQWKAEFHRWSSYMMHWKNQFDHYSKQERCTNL

Structure (SMILES) | IC50 [1] | IC50 (hBACE 1; [2]) | IC50 (hBACE 1; hBACE 1 PIC50 (μM)) | EeAChE PIC50 ([1]; AChE from electric eel) | IC50 ([1]; read-out: EeAChE IC50 (μM) ± SD, mean ± SD, n = 3, AChE from electric eel, Ellman assay) | hBACE 1 PIC50 (hBACE 1) | IC50 (hBACE 1; read-out: hBACE 1 IC50 (μM) ± SD, mean ± SD, n = 3, FRET assay)
[H]/N=C(/N)NN=C(/C=C/c1ccc(C(C)(C)C)cc1)c1cn(Cc2ccccc2)c2ccccc12 [Compound 1b, (Z)-2-((E)-1-(1-Benzyl-1H-indol-3-yl)-3-(4-(tert-butyl)phenyl)allylidene)hydrazine-1-carboximidamide] | 42.9 ± 0.48 µM | 97.4 ± 1.36 µM | 97.7 µM |  |  |  | 
[H]/N=C(/N)NN=C(/C=C/c1cccc(OC)c1OC)c1cn(Cc2ccccc2)c2ccccc12 [Compound 1p, (Z)-2-((E)-1-(1-Benzyl-1H-indol-3-yl)-3-(2,3-dimethoxyphenyl)allylidene)hydrazine-1-carboximidamide] | 48.6 ± 1.51 µM | 134 ± 1.42 µM | 135 µM |  |  |  | 
[H]/N=C(/N)NN=C(/C=C/c1ccc(C(C)(C)C)cc1)c1cn(Cc2ccc(C(C)(C)C)cc2)c2ccccc12 [Compound 3h, (Z)-2-((E)-1-(1-(4-(tert-Butyl)benzyl)-1H-indol-3-yl)-3-(4-(tert-butyl)phenyl)allylidene)hydrazine-1-carboximidamide] | 55.7 ± 3.17 µM | 179.2 ± 0.78 µM | 178 µM |  |  |  | 
[H]/N=C(/N)NN=C(/C=C/c1ccc(F)cc1F)c1cn(Cc2ccccc2)c2ccccc12 [Compound 1m, (Z)-2-((E)-1-(1-Benzyl-1H-indol-3-yl)-3-(2,4-difluorophenyl)allylidene)hydrazine-1-carboximidamide] |  |  |  | 3.83 µM | 148 ± 3.11 µM | 4.89 µM | 12.8 ± 0.5 µM
[H]/N=C(/N)NN=C(/C=C/c1ccccc1)c1cn(Cc2ccc(F)cc2F)c2ccccc12 [Compound 2a, (Z)-2-((E)-1-(1-(2,4-Difluorobenzyl)-1H-indol-3-yl)-3-phenylallylidene)hydrazine-1-carboximidamide] | 46.4 ± 1.63 µM | 200.1 ± 1.98 µM | 200 µM |  |  |  | 
[H]/N=C(/N)NN=C(/C=C/c1ccccc1)c1cn(Cc2ccc(F)cc2C(F)(F)F)c2ccccc12 [Compound 2d, (Z)-2-((E)-1-(1-(4-Fluoro-2-(trifluoromethyl)benzyl)-1H-indol-3-yl)-3-phenylallylidene)hydrazine-1-carboximidamide] | 169 ± 1.91 µM | 140.9 ± 1.06 µM | 141 µM |  |  |  | 
[H]/N=C(/N)NN=C(/C=C/c1ccc(C(C)(C)C)cc1)c1cn(Cc2ccc(-c3ccccc3)cc2)c2ccccc12 [Compound 3c, (Z)-2-((E)-1-(1-([1,1′-Biphenyl]-4-ylmethyl)-1H-indol-3-yl)-3-(4-(tert-butyl)phenyl)allylidene)hydrazine-1-carboximidamide] | 16.6 ± 1.04 µM | 201 ± 3.82 µM | 200 µM |  |  |  | 
[H]/N=C(/N)NN=C(/C=C/c1ccc(F)c(F)c1)c1cn(Cc2ccccc2)c2ccccc12 [Compound 1a, (Z)-2-((E)-1-(1-Benzyl-1H-indol-3-yl)-3-(3,4-difluorophenyl)allylidene)hydrazine-1-carboximidamide] | 77.2 ± 2.24 µM | 72.11 ± 0.01 µM | 72.4 µM |  |  |  | 
[H]/N=C(/N)NN=C(/C=C/c1ccccc1)c1cn(Cc2cccc(C#N)c2)c2ccccc12 [Compound 2j, (Z)-2-((E)-1-(1-(3-Cyanobenzyl)-1H-indol-3-yl)-3-phenylallylidene)hydrazine-1-carboximidamide] | 75.91 ± 0.32 µM | 178.2 ± 0.92 µM | 178 µM |  |  |  | 
[H]/N=C(/N)NN=C(/C=C/c1cccc(F)c1)c1cn(Cc2ccccc2)c2ccccc12 [Compound 1f, (Z)-2-((E)-1-(1-Benzyl-1H-indol-3-yl)-3-(3-fluorophenyl)allylidene)hydrazine-1-carboximidamide] | 67 ± 1.95 µM | 88.59 ± 0.32 µM | 89.1 µM |  |  |  | 
[H]/N=C(/N)NN=C(/C=C/c1ccccc1)c1cn(Cc2cc(C(F)(F)F)cc(C(F)(F)F)c2)c2ccccc12 [Compound 2c, (Z)-2-((E)-1-(1-(3,5-Bis(trifluoromethyl)benzyl)-1H-indol-3-yl)-3-phenylallylidene)hydrazine-1-carboximidamide] | 56.6 ± 0.98 µM | 70 ± 0.87 µM | 70.8 µM |  |  |  | 
[H]/N=C(/N)NN=C(/C=C/c1ccc(C(C)C)cc1)c1cn(Cc2cc(F)ccc2F)c2ccccc12 [Compound 3f, (Z)-2-((E)-1-(1-(2,5-Difluorobenzyl)-1H-indol-3-yl)-3-(4-isopropylphenyl)allylidene)hydrazine-1-carboximidamide] | 167 ± 2.12 µM | 82.1 ± 2.74 µM | 81.3 µM |  |  |  | 
